The IC50 is the concentration that inhibits the measured activity by half.

The structures appear in SMILES notation.

This note sets out measurements from BindingDB's records for doi:10.1016/j.bmc.2011.05.013 (University of Auckland, 2011).

The nature of the experiment: Inhibition of recombinant perforin mediated lysis of human Jurkat cells pre-incubated for 30 mins with perforin followed by incubation with Jurkat cells at 37 degC for 4 hrs in presence of 0.1% BSA by [51Cr] release assay.
As to `CCNC(=O)c1ccc(-c2c(C#N)c(N)n3c(nc4ccccc43)c2C#N)cc1`, the IC50 was 3.16 µM. As for `CNC(=O)c1ccc(-c2c(C#N)c(N)n3c(nc4ccccc43)c2C#N)cc1`, the figure is 1.04 µM; as for `Cc1cc2nc3c(C#N)c(-c4ccc(OCC(N)=O)cc4)c(C#N)c(N)n3c2cc1C`, 3.53 µM. Turning to `N#Cc1c(-c2ccc(OCC(N)=O)cc2)c(C#N)c2nc3ccccc3n2c1N`, the IC50 was 5.19 µM.

Consider `N#Cc1c(-c2ccc(OCCO)cc2)c(C#N)c2nc3ccccc3n2c1N`, for which the IC50 turned out to be 2.87 µM.

On to `N#Cc1c(-c2ccc(C(=O)NCCCO)cc2)c(C#N)c2nc3ccccc3n2c1N`, for which the 50% inhibitory concentration (IC50) was 4.18 µM. As for `CN(C)C(=O)COc1ccc(-c2c(C#N)c(N)n3c(nc4ccccc43)c2C#N)cc1`, the figure is 6.89 µM. As for `N#Cc1c(-c2ccc(C(N)=O)cc2)c(C#N)c2nc3ccccc3n2c1N`, the figure is 3 µM; as for `N#Cc1c(-c2ccc(OCC(N)=O)cc2)c(C#N)c2nc3c(Cl)cccc3n2c1N`, 5.67 µM. For `Cc1ccc2c(nc3c(C#N)c(-c4ccc(OCC(N)=O)cc4)c(C#N)c(N)n32)c1C`, the IC50 worked out at 5.21 µM. As for `N#Cc1c(-c2ccc(C(=O)NCCO)cc2)c(C#N)c2nc3ccccc3n2c1N`, the figure is 3.08 µM; as for `CCNC(=O)COc1ccc(-c2c(C#N)c(N)n3c(nc4ccccc43)c2C#N)cc1`, 7.44 µM; as for `N#Cc1c(-c2ccc(C(=O)NCC(O)CO)cc2)c(C#N)c2nc3ccccc3n2c1N` (configuration not stated), 3.24 µM. As for `CC(C)NC(=O)COc1ccc(-c2c(C#N)c(N)n3c(nc4ccccc43)c2C#N)cc1`, the figure is 13.2 µM.

With `CNC(=O)COc1ccc(-c2c(C#N)c(N)n3c(nc4ccccc43)c2C#N)cc1`, the IC50 amounted to 4.56 µM. As for `CCCNC(=O)COc1ccc(-c2c(C#N)c(N)n3c(nc4ccccc43)c2C#N)cc1`, the figure is 13.9 µM.

As for `Cc1cc2nc(C(C#N)=Cc3ccc(OCC(N)=O)cc3)[nH]c2cc1C`, the IC50 is 5.14 µM.

As for `N#Cc1c(-c2ccc(OCC(=O)NCCO)cc2)c(C#N)c2nc3ccccc3n2c1N`, the IC50 came out at 8.25 µM. For `N#Cc1c(-c2ccc(C(=O)NCCN3CCOCC3)cc2)c(C#N)c2nc3ccccc3n2c1N`, the IC50 was 10 µM. As for `COc1cccc2c1nc1c(C#N)c(-c3ccc(OCC(N)=O)cc3)c(C#N)c(N)n12`, the figure is 7.49 µM.

For `Cc1cccc2c1nc1c(C#N)c(-c3ccc(OCC(N)=O)cc3)c(C#N)c(N)n12`, the IC50 amounted to 6.87 µM. As for `N#CC(=Cc1ccc(OCC(N)=O)cc1)c1nc2cccc(Cl)c2[nH]1`, the figure is 6.72 µM. As for `CNC(=O)CCc1ccc(-c2c(C#N)c(N)n3c(nc4ccccc43)c2C#N)cc1`, the figure is greater than 20 µM; as for `CN(C)C(=O)CCc1ccc(-c2c(C#N)c(N)n3c(nc4ccccc43)c2C#N)cc1`, greater than 20 µM; as for `CC(O)CNC(=O)COc1ccc(-c2c(C#N)c(N)n3c(nc4ccccc43)c2C#N)cc1` (configuration not stated), greater than 20 µM. As to `N#Cc1c(-c2ccc(OCC(=O)NCCCO)cc2)c(C#N)c2nc3ccccc3n2c1N`, the IC50 is greater than 20 µM. As for `N#Cc1c(-c2ccc(OCC(=O)NCC(O)CO)cc2)c(C#N)c2nc3ccccc3n2c1N` (configuration not stated), the figure is greater than 20 µM; as for `CN(C)C(=O)c1ccc(-c2c(C#N)c(N)n3c(nc4ccccc43)c2C#N)cc1`, greater than 20 µM; as for `CN(C)CCNC(=O)c1ccc(-c2c(C#N)c(N)n3c(nc4ccccc43)c2C#N)cc1`, greater than 20 µM. As for `N#CC(=Cc1ccc(OCC(N)=O)cc1)c1nc2ccccc2[nH]1`, the figure is greater than 20 µM; as for `COc1cccc2[nH]c(C(C#N)=Cc3ccc(OCC(N)=O)cc3)nc12`, greater than 20 µM; as for `Cc1ccc2nc(C(C#N)=Cc3ccc(OCC(N)=O)cc3)[nH]c2c1C`, greater than 20 µM.

In the case of `N#Cc1c(-c2ccc(OCC(=O)NCCc3ccncc3)cc2)c(C#N)c2nc3ccccc3n2c1N`, the half-inhibitory concentration (IC50) worked out at 10 µM. As for `N#Cc1c(-c2ccc(C(=O)NCCc3ccncc3)cc2)c(C#N)c2nc3ccccc3n2c1N`, the figure is 10.5 µM; as for `Cc1cccc2[nH]c(C(C#N)=Cc3ccc(OCC(N)=O)cc3)nc12`, greater than 20 µM. Turning to `CC(O)CNC(=O)c1ccc(-c2c(C#N)c(N)n3c(nc4ccccc43)c2C#N)cc1` (configuration not stated), the IC50 was 5.55 µM. As for `N#Cc1c(-c2ccc(C(=O)NCCN3CCCCC3)cc2)c(C#N)c2nc3ccccc3n2c1N`, the figure is greater than 20 µM.
